Measured values reported in ChEMBL document CHEMBL5512599, “Synthetic non-toxic anti-biofilm agents as a strategy in combating bacterial resistance” (Eur J Med Chem, 2023).
Values after ≈ are worked out from the molar mass of the structure shown. Values belong to the compound of their own block, whether it stands above or below them.

Legend:
[1] = system: Staphylococcus epidermidis; assay: Antibiofilm activity against Staphylococcus epidermidis clinical isolate 531/12 assessed as inhibition of biofilm formation measured after 24 hrs by confocal laser scanning microscopy analysis; type: functional, organism-based
[2] = system: Staphylococcus epidermidis; assay: Antimicrobial activity against Staphylococcus epidermidis ATCC 35984 assessed as reduction in microbial growth after 24 hrs by CLSI based broth microdilution method; type: functional
[3] = system: Staphylococcus epidermidis; assay: Antibacterial activity against Staphylococcus epidermidis clinical isolate 517/12 assessed as reduction in bacterial growth measured after 24 hrs by CLSI based broth micro-dilution method; type: functional
[4] = system: Staphylococcus epidermidis; assay: Antibiofilm activity against Staphylococcus epidermidis clinical isolate 533/12 assessed as inhibition of biofilm formation measured after 24 hrs by confocal laser scanning microscopy analysis; type: functional, organism-based
[5] = system: Staphylococcus epidermidis; assay: Antibacterial activity against Staphylococcus epidermidis clinical isolate 531/12 assessed as reduction in bacterial growth measured after 24 hrs by CLSI based broth micro-dilution method; type: functional
[6] = system: Staphylococcus epidermidis; assay: Antibiofilm activity against Staphylococcus epidermidis clinical isolate 528/12 assessed as inhibition of biofilm formation measured after 24 hrs by confocal laser scanning microscopy analysis; type: functional, organism-based
[7] = system: Staphylococcus epidermidis; assay: Antibacterial activity against Staphylococcus epidermidis clinical isolate 532/12 assessed as reduction in bacterial growth measured after 24 hrs by CLSI based broth micro-dilution method; type: functional
[8] = system: Staphylococcus epidermidis; assay: Antimicrobial activity against Staphylococcus epidermidis ATCC 12228 assessed as reduction in microbial growth after 24 hrs by CLSI based broth microdilution method; type: functional
[9] = system: Staphylococcus epidermidis; assay: Antibiofilm activity against Staphylococcus epidermidis clinical isolate 517/12 assessed as inhibition of biofilm formation measured after 24 hrs by confocal laser scanning microscopy analysis; type: functional, organism-based
[10] = system: Staphylococcus epidermidis; assay: Antibiofilm activity against Staphylococcus epidermidis clinical isolate 526/12 assessed as inhibition of biofilm formation measured after 24 hrs by confocal laser scanning microscopy analysis; type: functional, organism-based
[11] = system: Staphylococcus epidermidis; assay: Antibacterial activity against Staphylococcus epidermidis clinical isolate 528/12 assessed as reduction in bacterial growth measured after 24 hrs by CLSI based broth micro-dilution method; type: functional
[12] = system: Staphylococcus epidermidis; assay: Antibacterial activity against Staphylococcus epidermidis clinical isolate 533/12 assessed as reduction in bacterial growth measured after 24 hrs by CLSI based broth micro-dilution method; type: functional
[13] = system: Staphylococcus epidermidis; assay: Antibiofilm activity against Staphylococcus epidermidis ATCC 12228 assessed as inhibition of biofilm formation measured after 24 hrs by confocal laser scanning microscopy analysis; type: functional, organism-based; settings: ATCC 12228, 24 h
[14] = system: Staphylococcus epidermidis; assay: Antibiofilm activity against Staphylococcus epidermidis clinical isolate 523/12 assessed as inhibition of biofilm formation measured after 24 hrs by confocal laser scanning microscopy analysis; type: functional, organism-based
[15] = system: Staphylococcus epidermidis; assay: Antibiofilm activity against Staphylococcus epidermidis clinical isolate 532/12 assessed as inhibition of biofilm formation measured after 24 hrs by confocal laser scanning microscopy analysis; type: functional, organism-based
[16] = system: Staphylococcus epidermidis; assay: Antibiofilm activity against Staphylococcus epidermidis clinical isolate 519/12 assessed as inhibition of biofilm formation measured after 24 hrs by confocal laser scanning microscopy analysis; type: functional, organism-based
[17] = system: Klebsiella pneumoniae; assay: Antibiofilm activity against Klebsiella pneumoniae ATCC 13882 assessed as inhibition of biofilm formation incubated for 24 hrs by crystal violet staining based broth microdilution method; type: functional, organism-based; settings: ATCC 13882, 24 h
[18] = system: Klebsiella pneumoniae; assay: Antibacterial activity against Klebsiella pneumoniae ATCC 13882 assessed as fold change in colistin MIC incubated for 16 to 18 hrs by broth microdilution method; type: functional; settings: time 16-18 hrs
[19] = Inhibition of Staphylococcus aureus sortase A by FRET assay
[20] = system: Staphylococcus aureus; assay: Antibiofilm activity against Staphylococcus aureus ATCC 25923 after 24 hrs by crystal violet staining based assay; type: functional
[21] = system: Staphylococcus aureus; assay: Antibacterial activity against Staphylococcus aureus ATCC 6538 assessed as reduction in bacterial growth incubated for 18 to 24 hrs by broth microdilution method; type: functional; settings: time 18-24 hrs
[22] = system: Staphylococcus aureus; assay: Antibacterial activity against Staphylococcus aureus ATCC 25923 assessed as reduction in bacterial growth incubated for 18 to 24 hrs by broth microdilution method; type: functional; settings: time 18-24 hrs
[23] = system: Staphylococcus epidermidis; assay: Antibacterial activity against Staphylococcus epidermidis RP62A assessed as reduction in bacterial growth incubated for 18 to 20 hrs by broth microdilution assay; type: functional; settings: time 18-20 hrs
[24] = system: Staphylococcus aureus; assay: Antibacterial activity against Staphylococcus aureus ATCC 29213 assessed as reduction in bacterial growth incubated for 18 to 24 hrs by broth microdilution method; type: functional; settings: time 18-24 hrs
[25] = system: Staphylococcus aureus; assay: Antibacterial activity against […] Staphylococcus aureus ATCC 29213 assessed as reduction in bacterial growth incubated for 18 hrs by mueller hinton broth dilution method; type: functional, organism-based; settings: ATCC 29213, 18 h
[26] = system: Staphylococcus aureus; assay: Antibiofilm activity against Methicillin-sensitive Staphylococcus aureus ATCC 29213 assessed as reduction in biofilm formation at 200 uM incubated for 24 hrs by crystal violet staining based analysis relative to control; type: functional; parameters: scale not given: the % may be the effect or the level left
[27] = system: Staphylococcus aureus; assay: Antibacterial activity against methicillin-sensitive Staphylococcus aureus ATCC 29213 assessed as reduction in bacterial growth incubated for 18 hrs by mueller hinton broth dilution method; type: functional, organism-based; settings: ATCC 29213, 18 h

Structure (SMILES): Nc1nccc(-c2cccc(NC(=O)c3cc(Br)cc(Br)c3)c2)n1
- IC50 [17]: 17.4 µM
- fold change (FC) [18]: 32

Structure (SMILES): Nc1ncc(C#CC2CCCC2)cn1
- IC50 [25]: 72 µM
- Activity [26]: 85%

Structure (SMILES): CCCCCCCCCC(=O)NCCCc1cnc(N)nc1
- Activity [26]: 80%
- IC50 [27]: 67 µM

Second part, led by results:

- IC50 [1]: 1.13 µg/mL (≈ 3.93 µM)
- MIC [2]: 4 µg/mL
- MIC [3]: 8 µg/mL (≈ 27.8 µM)
- IC50 [4]: 2.88 µg/mL (≈ 10 µM)
- MIC [5]: 4 µg/mL (≈ 13.9 µM)
- IC50 [6]: 1.11 µg/mL (≈ 3.86 µM)
- MIC [7]: 4 µg/mL (≈ 13.9 µM)
- MIC [8]: 4 µg/mL
- IC50 [9]: 0.66 µg/mL (≈ 2.29 µM)
- IC50 [10]: 4.95 µg/mL (≈ 17.2 µM)
- MIC [11]: 8 µg/mL (≈ 27.8 µM)
- MIC [12]: 4 µg/mL (≈ 13.9 µM)
- IC50 [13]: 0.35 µg/mL (≈ 1.22 µM)
- IC50 [14]: 3.14 µg/mL (≈ 10.9 µM)
- IC50 [15]: 2.21 µg/mL (≈ 7.68 µM)
- IC50 [16]: 2.5 µg/mL (≈ 8.69 µM)
Structure (SMILES): Fc1ccc(NC(=S)Nc2nccs2)cc1Cl

- IC50 [19]: 80 µM
- MIC [21]: > 270 µM
- MIC [22]: > 270 µM
- MIC [23]: > 270 µM
- MIC [24]: > 270 µM
Structure (SMILES): CC(=O)/C(=N\Nc1ccccc1)C(=O)O
- Activity [20]: 60%
